Assay results as given in PubChem BioAssay AID2060512 (Molecular Pharmacology Branch, DTP, NCI, 2025).

System: 186277-243-T-J2-PDC complex spheroid viability
Assay: Anticancer human tumor 186277-243-T-J2-PDC patient-derived colon adenocarcinoma cell line growth inhibition [GQUAD]
Conditions: for IC50: curve of first compound; for viability, T/C: stronger effect = lower value
Procedure, shortened: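 Multi-cell-type spheroids of tumor cells with HUVEC and mesenchymal stem cells, treated with drug combinations. Concentrations descend in half-log steps from near clinical Cmax, or from 10 microM where Cmax is unknown; viability read-out.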

[1] = second compound 0.0316 µM, first compound 0.0316 µM
[2] = second compound 0.0316 µM, first compound 0.316 µM
[3] = second compound 0.1 µM, first compound 0.0316 µM
[4] = second compound 0.1 µM, first compound 0.316 µM
[5] = second compound 0.316 µM, first compound 0.0316 µM
[6] = second compound 0.316 µM, first compound 0.316 µM
[7] = second compound 1 µM, first compound 0.0316 µM
[8] = second compound 1 µM, first compound 0.316 µM
[9] = second compound 3.16 µM, first compound 0.0316 µM
[10] = second compound 3.16 µM, first compound 0.316 µM
[11] = second compound 10 µM, first compound 0.0316 µM
[12] = second compound 10 µM, first compound 0.316 µM
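Further: spheroids exposed to drugs for 7 days.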
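Wherever viability, T/C is given: 100% = DMSO vehicle control viability.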

SMILES: Cn1ncnc1[C@H]1c2n[nH]c(=O)c3cc(F)cc(c23)N[C@@H]1c1ccc(F)cc1 + Cc1[nH]c2ccc(F)cc2c1-c1nc2c3cccnc3c3ncccc3c2[nH]1
- IC50 (second compound 0.0316 µM): > 316 nM
- IC50 (second compound 0.1 µM): > 316 nM
- IC50 (second compound 0.316 µM): > 316 nM
- IC50 (second compound 1 µM): > 316 nM
- IC50 (second compound 3.16 µM): > 316 nM
- IC50 (second compound 10 µM): > 316 nM
- viability, T/C (second compound 0.0316 µM, first compound 0.000999 µM): 112%
- viability, T/C (second compound 0.0316 µM, first compound 0.00316 µM): 99.2%
- viability, T/C (second compound 0.0316 µM, first compound 0.00999 µM): 94.8%
- viability, T/C [1]: 94.2%
- viability, T/C (second compound 0.0316 µM, first compound 0.0999 µM): 98.1%
- viability, T/C [2]: 89.3%
- viability, T/C (second compound 0.1 µM, first compound 0.000999 µM): 93.5%
- viability, T/C (second compound 0.1 µM, first compound 0.00316 µM): 98.2%
- viability, T/C (second compound 0.1 µM, first compound 0.00999 µM): 101%
- viability, T/C [3]: 91.7%
- viability, T/C (second compound 0.1 µM, first compound 0.0999 µM): 84.5%
- viability, T/C [4]: 95.6%
- viability, T/C (second compound 0.316 µM, first compound 0.000999 µM): 86.3%
- viability, T/C (second compound 0.316 µM, first compound 0.00316 µM): 93.1%
- viability, T/C (second compound 0.316 µM, first compound 0.00999 µM): 96.7%
- viability, T/C [5]: 103%
- viability, T/C (second compound 0.316 µM, first compound 0.0999 µM): 91.7%
- viability, T/C [6]: 88.7%
- viability, T/C (second compound 1 µM, first compound 0.000999 µM): 85.5%
- viability, T/C (second compound 1 µM, first compound 0.00316 µM): 101%
- viability, T/C (second compound 1 µM, first compound 0.00999 µM): 98.4%
- viability, T/C [7]: 102%
- viability, T/C (second compound 1 µM, first compound 0.0999 µM): 102%
- viability, T/C [8]: 89.6%
- viability, T/C (second compound 3.16 µM, first compound 0.000999 µM): 103%
- viability, T/C (second compound 3.16 µM, first compound 0.00316 µM): 97.7%
- viability, T/C (second compound 3.16 µM, first compound 0.00999 µM): 113%
- viability, T/C [9]: 104%
- viability, T/C (second compound 3.16 µM, first compound 0.0999 µM): 87.5%
- viability, T/C [10]: 95%
- viability, T/C (second compound 10 µM, first compound 0.000999 µM): 105%
- viability, T/C (second compound 10 µM, first compound 0.00316 µM): 103%
- viability, T/C (second compound 10 µM, first compound 0.00999 µM): 101%
- viability, T/C [11]: 107%
- viability, T/C (second compound 10 µM, first compound 0.0999 µM): 82.1%
- viability, T/C [12]: 86.4%

SMILES: CC1COCCN1c1cc(C2(O)CC3CCC(C2)O3)c2cnn(-c3ccn[nH]3)c2n1 (centres undefined) + Cc1[nH]c2ccc(F)cc2c1-c1nc2c3cccnc3c3ncccc3c2[nH]1
- IC50 (second compound 0.0316 µM): 38.1 nM
- IC50 (second compound 0.1 µM): 33.9 nM
- IC50 (second compound 0.316 µM): < 31.6 nM
- IC50 (second compound 1 µM): < 31.6 nM
- IC50 (second compound 3.16 µM): < 31.6 nM
- IC50 (second compound 10 µM): 33.2 nM
- viability, T/C [1]: 57.5%
- viability, T/C (second compound 0.0316 µM, first compound 0.1 µM): 10.8%
- viability, T/C [2]: 6.48%
- viability, T/C (second compound 0.0316 µM, first compound 1 µM): 5.12%
- viability, T/C (second compound 0.0316 µM, first compound 3.16 µM): 5.33%
- viability, T/C (second compound 0.0316 µM, first compound 10 µM): 4.69%
- viability, T/C [3]: 52.6%
- viability, T/C (second compound 0.1 µM, first compound 0.1 µM): 10.2%
- viability, T/C [4]: 8.88%
- viability, T/C (second compound 0.1 µM, first compound 1 µM): 4.75%
- viability, T/C (second compound 0.1 µM, first compound 3.16 µM): 5.69%
- viability, T/C (second compound 0.1 µM, first compound 10 µM): 3.63%
- viability, T/C [5]: 31.9%
- viability, T/C (second compound 0.316 µM, first compound 0.1 µM): 11.2%
- viability, T/C [6]: 8.68%
- viability, T/C (second compound 0.316 µM, first compound 1 µM): 5.79%
- viability, T/C (second compound 0.316 µM, first compound 3.16 µM): 6.74%
- viability, T/C (second compound 0.316 µM, first compound 10 µM): 4.58%
- viability, T/C [7]: 40.6%
- viability, T/C (second compound 1 µM, first compound 0.1 µM): 22.6%
- viability, T/C [8]: 6.11%
- viability, T/C (second compound 1 µM, first compound 1 µM): 7.77%
- viability, T/C (second compound 1 µM, first compound 3.16 µM): 6.18%
- viability, T/C (second compound 1 µM, first compound 10 µM): 4.27%
- viability, T/C [9]: 48.3%
- viability, T/C (second compound 3.16 µM, first compound 0.1 µM): 14.4%
- viability, T/C [10]: 6.36%
- viability, T/C (second compound 3.16 µM, first compound 1 µM): 4.01%
- viability, T/C (second compound 3.16 µM, first compound 3.16 µM): 5.26%
- viability, T/C (second compound 3.16 µM, first compound 10 µM): 2.84%
- viability, T/C [11]: 52%
- viability, T/C (second compound 10 µM, first compound 0.1 µM): 16.5%
- viability, T/C [12]: 8.81%
- viability, T/C (second compound 10 µM, first compound 1 µM): 3.92%
- viability, T/C (second compound 10 µM, first compound 3.16 µM): 4.33%
- viability, T/C (second compound 10 µM, first compound 10 µM): 1.45%
